This passage reports EC50 results from ChEMBL document CHEMBL2177054, “Rational design of conformationally constrained cyclopentapeptide antagonists for C-x-C chemokine receptor 4 (CXCR4)” (J Med Chem, 2012).

In the assay the target is C-X-C chemokine receptor type 4 (Homo sapiens, UniProt P61073). Briefly: Antagonist activity against human CXCR4 expressed in COS7 cells assessed as inhibition of CXCL12-induced myo-[3H]inositol production by scintillation counting. The format is functional, cell-based, COS-7.
Chain of C-X-C chemokine receptor type 4 (P61073 whole entry): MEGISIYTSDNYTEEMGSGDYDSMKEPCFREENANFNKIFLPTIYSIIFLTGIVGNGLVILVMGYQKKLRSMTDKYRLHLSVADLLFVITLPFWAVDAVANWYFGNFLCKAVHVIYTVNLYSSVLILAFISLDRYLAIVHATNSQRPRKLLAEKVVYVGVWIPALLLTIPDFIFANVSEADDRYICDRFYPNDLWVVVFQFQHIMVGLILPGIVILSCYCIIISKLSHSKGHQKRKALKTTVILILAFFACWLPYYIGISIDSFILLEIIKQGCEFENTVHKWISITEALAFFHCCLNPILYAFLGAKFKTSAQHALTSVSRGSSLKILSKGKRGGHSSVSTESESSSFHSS
For `N=C(N)NCCC[C@@H]1NC(=O)[C@H](Cc2ccc(N)cc2)NC(=O)[C@@H](Cc2ccc(O)cc2)NC(=O)CNC(=O)[C@H](Cc2ccc3ccccc3c2)NC1=O`, the EC50 worked out at 15 µM. With `N=C(N)NCCC[C@@H]1NC(=O)[C@H](Cc2ccc(NC(=N)N)cc2)NC(=O)[C@@H](Cc2ccc(O)cc2)NC(=O)CNC(=O)[C@H](Cc2ccc3ccccc3c2)NC1=O`, the EC50 stood at 0.68 µM. `NC(=O)NCCC[C@@H]1NC(=O)[C@H](CCCNC(N)=O)NC(=O)[C@@H](Cc2ccc(O)cc2)NC(=O)CNC(=O)[C@H](Cc2ccc3ccccc3c2)NC1=O`: the EC50 was > 100 µM. To `N=C(N)NCCC[C@@H]1NC(=O)[C@@H](Cc2ccc(O)cc2)NC(=O)CNC(=O)[C@H](Cc2ccc3ccccc3c2)NC(=O)[C@H](CCCNC(N)=O)NC1=O` belongs > 100 µM; to `N=C(N)NCCC[C@@H]1NC(=O)[C@H](CCCNC(N)=O)NC(=O)[C@@H](Cc2ccc(O)cc2)NC(=O)CNC(=O)[C@H](Cc2ccc3ccccc3c2)NC1=O`, 2.9 µM. For `N=C(N)NCCC[C@@H]1NC(=O)CNC(=O)[C@@H](Cc2ccc(O)cc2)NC(=O)CNC(=O)[C@H](Cc2ccc3ccccc3c2)NC1=O` the value was 36 µM. To `CC1(C)NC(=O)[C@@H](Cc2ccc(O)cc2)NC(=O)CNC(=O)[C@H](Cc2ccc3ccccc3c2)NC(=O)[C@H](CCCNC(=N)N)NC1=O` belongs 3.6 µM; to `N=C(N)NCCC[C@@H]1NC(=O)C2(CCCCC2)NC(=O)[C@@H](Cc2ccc(O)cc2)NC(=O)CNC(=O)[C@H](Cc2ccc3ccccc3c2)NC1=O`, 5.4 µM. Turning to `N=C(N)NCCC[C@@H]1NC(=O)C2(CCNCC2)NC(=O)[C@@H](Cc2ccc(O)cc2)NC(=O)CNC(=O)[C@H](Cc2ccc3ccccc3c2)NC1=O`, the EC50 came out at 0.56 µM. For `N=C(N)NCCC[C@@H]1NC(=O)C2(CCN(C(=N)N)CC2)NC(=O)[C@@H](Cc2ccc(O)cc2)NC(=O)CNC(=O)[C@H](Cc2ccc3ccccc3c2)NC1=O` the value was 0.26 µM; for `N=C(N)NCCC[C@@H]1NC(=O)[C@H](Cc2ccccc2)NC(=O)[C@@H](Cc2ccc(O)cc2)NC(=O)CNC(=O)[C@H](Cc2ccc3ccccc3c2)NC1=O`, 7.2 µM.
